Experimental data from ChEMBL document CHEMBL1201862, “PubChem BioAssay data set” (2004).
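Interpolation was linear, between the two tested concentrations surrounding the appropriate level; five concentrations were tested over 48 hours in 96-well plates. GI50 marks 50% less growth.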 Activity calls are given as the source filed them. Cut-off read from the data, not from the text of the source: active = GI50 up to about 1.1 µM and inactive = higher.

Tests used:
Assay in all cases: NCI anticancer screen, dose series, 48 h
SK-OV-3 = test system: SK-OV-3
HCC 2998 = test system: HCC 2998
SNB-75 = test system: SNB-75
UACC-257 = test system: UACC-257
SNB-78 = test system: SNB-78
A549 = test system: A549
HCT-15 = test system: HCT-15
LOX IMVI = test system: LOX IMVI
DMS-273 = test system: DMS-273
K562 = test system: K562
HL-60 = test system: HL-60
OVCAR-5 = test system: OVCAR-5
SF-539 = test system: SF-539
IGROV-1 = test system: IGROV-1
OVCAR-3 = test system: OVCAR-3
HCT-116 = test system: HCT-116
KM-20L2 = test system: KM-20L2
NCI-H460 = test system: NCI-H460
CAKI-1 = test system: CAKI-1
SK-MEL-5 = test system: SK-MEL-5
HOP-62 = test system: HOP-62
U-251 = test system: U-251
ACHN = test system: ACHN
TK-10 = test system: TK-10
M19-MEL = test system: M19-MEL
CCRF-CEM = test system: CCRF-CEM
786-0 = test system: 786-0
SK-MEL-2 = test system: SK-MEL-2
DMS-114 = test system: DMS-114
MOLT-4 = test system: MOLT-4
HOP-18 = test system: HOP-18
DLD-1 = test system: DLD-1
LXFL 529 = test system: LXFL 529
NCI-H522 = test system: NCI-H522
SN12C = test system: SN12C
UO-31 = test system: UO-31
RPMI-8226 = test system: RPMI-8226
OVCAR-8 = test system: OVCAR-8
KM12 = test system: KM12
SNB-19 = test system: SNB-19
SF-295 = test system: SF-295
NCI-H23 = test system: NCI-H23
OVCAR-4 = test system: OVCAR-4
Malme-3M = test system: Malme-3M
HT-29 = test system: HT-29
M14 = test system: M14
COLO 205 = test system: COLO 205
RXF 393 = test system: RXF 393
EKVX = test system: EKVX
A498 = test system: A498
NCI-H226 = test system: NCI-H226
SW-620 = test system: SW-620
SK-MEL-28 = test system: SK-MEL-28
UACC-62 = test system: UACC-62
HOP-92 = test system: HOP-92
SF-268 = test system: SF-268
SR = test system: SR
XF498 = test system: XF498

Measured: GI50

O=C(CSc1nnc(Cc2ccccc2)o1)Nc1ccc(Cl)cc1
> 100 µM: HCT-15
inactive: SK-OV-3 > 100 µM | HCC 2998 > 100 µM | SNB-75 67.8 µM | UACC-257 > 100 µM | SNB-78 > 100 µM | A549 > 100 µM | LOX IMVI > 100 µM | DMS-273 67.8 µM | K562 87.7 µM | HL-60 > 100 µM | OVCAR-5 70.3 µM | SF-539 > 100 µM | IGROV-1 92 µM | OVCAR-3 68.2 µM | HCT-116 > 100 µM | KM-20L2 78.5 µM | NCI-H460 77.3 µM | CAKI-1 59.2 µM | SK-MEL-5 57.8 µM | HOP-62 > 100 µM | U-251 > 100 µM | ACHN 75.9 µM | TK-10 > 100 µM | M19-MEL > 100 µM | CCRF-CEM > 100 µM | 786-0 > 100 µM | SK-MEL-2 82 µM | DMS-114 39.4 µM | MOLT-4 > 100 µM | HOP-18 > 100 µM | DLD-1 > 100 µM | LXFL 529 86.3 µM | NCI-H522 75.3 µM | SN12C > 100 µM | UO-31 > 100 µM | RPMI-8226 > 100 µM | OVCAR-8 96.6 µM | KM12 > 100 µM | SNB-19 > 100 µM | SF-295 66.8 µM | NCI-H23 52.2 µM | OVCAR-4 58.7 µM | Malme-3M > 100 µM | HT-29 47.4 µM | M14 > 100 µM | COLO 205 > 100 µM | RXF 393 > 100 µM | EKVX 32.7 µM | A498 46.8 µM | NCI-H226 86.5 µM | SW-620 > 100 µM | SK-MEL-28 > 100 µM | UACC-62 41.8 µM

CN(C)CCNC(=O)c1ccc2ccc3cccnc3c2n1
11.8 µM: HCT-15
inactive: SK-OV-3 19.5 µM | HCC 2998 10.5 µM | SNB-75 16 µM | UACC-257 15.3 µM | SNB-78 7.78 µM | A549 12.1 µM | HOP-92 16.4 µM | LOX IMVI 9.51 µM | DMS-273 6.89 µM | K562 21.5 µM | HL-60 26.4 µM | OVCAR-5 14.6 µM | SF-539 8.63 µM | IGROV-1 25.7 µM | OVCAR-3 24.7 µM | HCT-116 4.02 µM | KM-20L2 9.57 µM | NCI-H460 6.18 µM | CAKI-1 13.1 µM | SK-MEL-5 13.9 µM | HOP-62 19.2 µM | U-251 16.3 µM | ACHN 7.45 µM | TK-10 9.35 µM | CCRF-CEM 18.9 µM | SF-268 16.2 µM | 786-0 11.1 µM | SK-MEL-2 15.2 µM | DMS-114 12.1 µM | MOLT-4 3.44 µM | HOP-18 26.2 µM | SR 4.24 µM | DLD-1 6.55 µM | LXFL 529 11.8 µM | NCI-H522 7.23 µM | SN12C 13.8 µM | UO-31 12.2 µM | OVCAR-8 8.17 µM | KM12 18.2 µM | SNB-19 19.6 µM | SF-295 18.7 µM | NCI-H23 17.1 µM | OVCAR-4 14.5 µM | Malme-3M 13.5 µM | HT-29 9.14 µM | M14 16.4 µM | COLO 205 8.24 µM | RXF 393 12.8 µM | EKVX 15.5 µM | A498 14.3 µM | NCI-H226 14.3 µM | SW-620 5.98 µM | SK-MEL-28 27.9 µM | UACC-62 16.6 µM

O=c1n(Cc2ccccc2)c2ccccc2n1CC1CS1 (stereo not given)
inactive: SK-OV-3 > 100 µM | HCC 2998 > 100 µM | SNB-75 58.6 µM | A549 > 100 µM | HOP-92 > 100 µM | LOX IMVI > 100 µM | DMS-273 > 100 µM | K562 > 100 µM | HL-60 > 100 µM | OVCAR-5 > 100 µM | SF-539 > 100 µM | IGROV-1 > 100 µM | OVCAR-3 > 100 µM | HCT-116 > 100 µM | KM-20L2 > 100 µM | CAKI-1 > 100 µM | HOP-62 > 100 µM | ACHN > 100 µM | TK-10 > 100 µM | M19-MEL > 100 µM | XF498 > 100 µM | CCRF-CEM > 100 µM | SF-268 > 100 µM | SK-MEL-2 > 100 µM | DMS-114 > 100 µM | MOLT-4 > 100 µM | SR > 100 µM | LXFL 529 > 100 µM | NCI-H522 > 100 µM | SN12C > 100 µM | UO-31 > 100 µM | RPMI-8226 > 100 µM | OVCAR-8 > 100 µM | KM12 > 100 µM | SNB-19 > 100 µM | SF-295 > 100 µM | OVCAR-4 > 100 µM | Malme-3M > 100 µM | M14 > 100 µM | COLO 205 > 100 µM | EKVX > 100 µM | NCI-H226 > 100 µM | SW-620 > 100 µM | SK-MEL-28 > 100 µM | UACC-62 > 100 µM
> 100 µM: HCT-15
